Results on 22 compounds are retold here after the PolyMetriX glass transition set.

Molecules are shown by their SMILES.

`*CC(=O)Nc1ccc(C2(c3ccc(NC(=O)c4ccc5c(c4)C(=O)N(*)C5=O)cc3)c3ccccc3-c3ccccc32)cc1` (repeat unit) gave a glass transition temperature of 345.00 °C.
As for `*CC(=O)Nc1ccc(Cc2ccc(NC(=O)c3ccc4c(c3)C(=O)N(*)C4=O)cc2)cc1` (repeat unit), the figure is 266.00 °C; as for `*CC(=O)Nc1ccc(Oc2ccc(Oc3ccc(NC(=O)CN4C(=O)c5ccc(C(=O)c6ccc7c(c6)C(=O)N(*)C7=O)cc5C4=O)cc3)cc2)cc1` (repeat unit), 230.00 °C; as for `*CC(=O)Nc1ccc(Oc2cccc(NC(=O)CN3C(=O)c4ccc(C(=O)c5ccc6c(c5)C(=O)N(*)C6=O)cc4C3=O)c2)cc1` (repeat unit), 226.00 °C.
On to `*CC(=O)Nc1ccc(Oc2cccc(Oc3ccc(NC(=O)CN4C(=O)c5ccc(C(c6ccc7c(c6)C(=O)N(*)C7=O)(C(F)(F)F)C(F)(F)F)cc5C4=O)cc3)c2)cc1` (repeat unit), for which the glass transition temperature amounted to 221.00 °C.
The same measure for `*CC(=O)Nc1ccc(S(=O)(=O)c2ccc(NC(=O)c3ccc4c(c3)C(=O)N(*)C4=O)cc2)cc1` (repeat unit): 232.00 °C.
The same measure for `*CC(C)C(=O)N*` (repeat unit): 96.00 °C; for `*CCC(=O)NCc1cc(C)c(CNC(=O)CCO*)cc1C` (repeat unit): 80.00 °C.
As for `*CCC(C)(C)CC(C)CNC(=O)CCCCC(=O)N*` (repeat unit), the figure is 65.00 °C; as for `*CCc1ccc(*)c(Cl)c1` (repeat unit), 75.00 °C; as for `*CCc1ccc(*)c2ccccc12` (repeat unit), 160.00 °C.
Regarding `*CCc1cccc(*)c1` (repeat unit), the glass transition temperature was 9.00 °C.
As for `*Cc1c(C)c(C)c(CNC(=O)CCCCCC(C)CC(=O)N*)c(C)c1C` (repeat unit), the figure is 211.00 °C; as for `*Cc1cc(CNC(=O)CCCCC(=O)N*)cc(C(C)(C)C)c1` (repeat unit), 109.00 °C.
The same measure for `*Oc1ccc(CC(NC(=O)CCc2ccc(OC(=O)CCCCCCC(*)=O)cc2)C(=O)OCc2ccccc2)cc1` (repeat unit): 47.00 °C; for `*Oc1ccc(CC(NC(=O)CCc2ccc(OC(=O)COCCOCC(*)=O)cc2)C(=O)OCc2ccccc2)cc1` (repeat unit): 55.00 °C.
The same measure for `*Oc1ccc(NC(=O)c2cc(NC(=O)c3ccccc3)cc(C(=O)Nc3ccc(*)cc3)c2)cc1` (repeat unit): 294.50 °C; for `*Oc1ccc(NC(=O)c2cc(NC(=O)c3ccncc3)cc(C(=O)Nc3ccc(*)cc3)c2)cc1` (repeat unit): 305.00 °C; for `*Oc1ccc(S(=O)(=O)c2ccc(Oc3ccc(NC(=O)c4cc(C(=O)Nc5ccc(*)cc5)cc(C(C)(C)C)c4)cc3)cc2)cc1` (repeat unit): 232.50 °C.
With `*c1ccc(-c2nc3cc(Oc4ccc(NC(=O)CN5C(=O)c6ccc(C(c7ccc8c(c7)C(=O)N(CC(=O)Nc7ccc(Oc9ccc%10nc(-c%11ccccc%11)c(*)nc%10c9)cc7)C8=O)(C(F)(F)F)C(F)(F)F)cc6C5=O)cc4)ccc3nc2-c2ccccc2)cc1` (repeat unit), the glass transition temperature worked out at 280.00 °C.
The same measure for `*c1ccc(-c2nc3cc(Oc4ccc(NC(=O)CN5C(=O)c6ccc(C(c7ccc8c(c7)C(=O)N(CC(=O)Nc7ccc(Oc9ccc%10nc(-c%11ccccc%11)c(-c%11ccc(N%12C(=O)c%13ccc%14c%15c(ccc(c%13%15)C%12=O)C(=O)N(*)C%14=O)cc%11)nc%10c9)cc7)C8=O)(C(F)(F)F)C(F)(F)F)cc6C5=O)cc4)ccc3nc2-c2ccccc2)cc1` (repeat unit): 306.00 °C.
As for `*c1ccc(Oc2ccc(NC(=O)CN3C(=O)c4ccc(C(c5ccc6c(c5)C(=O)N(CC(=O)Nc5ccc(Oc7ccc(-c8nnc(*)o8)cc7)cc5)C6=O)(C(F)(F)F)C(F)(F)F)cc4C3=O)cc2)cc1` (repeat unit), the figure is 263.00 °C.
